Values after ≈ are worked out from the molar mass of the structure shown. Read-outs that look alike come from different tables or passages of the source.
Tests used:
[1] = tested on: S. typhimurium S18; assay: MIC against veterinary bacteria in vitro (Diagnostic Sensitivity Test Agar); details: Salmonella enterica, 18 h
Method: (§2) The activity of the normonyl derivatives of the Examples against various veterinarily important bacteria, was assayed in vitro using two-fold serial dilutions in Diagnostic Sensitivity Test Agar inoculated with 10^4 organisms.

[2] = tested on: M. hyopneumoniae ATCC 25095; assay: MIC against Mycoplasma in vitro (Friis broth with agarose); type: cell-based; details: Mesomycoplasma hyopneumoniae, ATCC25095, 144 h; M. hyopneumoniae ATCC 25095; 6 days at 37° C; read-out: MIC
[3] = tested on: B. subtilis ATCC 6633; assay: MIC against veterinary bacteria in vitro (Diagnostic Sensitivity Test Agar); details: Bacillus subtilis, ATCC6633, 18 h
Method: as §2

[4] = tested on: M. gallisepticum S6; assay: MIC against Mycoplasma in vitro (Friis broth with agarose); type: cell-based; details: Mycoplasmoides gallisepticum, 144 h; M. gallisepticum S6; 6 days at 37° C; read-out: MIC
[5] = tested on: Strep. suis (group D) SPS11; assay: MIC against veterinary bacteria in vitro (Diagnostic Sensitivity Test Agar); details: Streptococcus suis, 18 h
Method: as §2

[6] = tested on: Past. multocida PA1; assay: as above; details: Pasteurella multocida, PA1, 18 h
Method: as §2

[7] = tested on: M. pneumoniae ATCC 15492; assay: MIC against Mycoplasma in vitro (Friis broth with agarose); type: cell-based; details: Mycoplasmoides pneumoniae, ATCC15492, 144 h; M. pneumoniae ATCC 15492; 6 days at 37° C; read-out: MIC
[8] = tested on: M. hyosynoviae ATCC 25591; assay: as above; type: cell-based; details: 144 h; M. hyosynoviae ATCC 25591; 6 days at 37° C; read-out: MIC
[9] = tested on: M. hyopneumoniae PW/C/210; assay: as above; type: cell-based; details: Mesomycoplasma hyopneumoniae, 144 h; M. hyopneumoniae PW/C/210; 6 days at 37° C; read-out: MIC
[10] = tested on: M. hyopneumoniae UCD 1; assay: as above; type: cell-based; details: Mesomycoplasma hyopneumoniae, UCD1, 144 h
[11] = tested on: S. dublin S7; assay: MIC against veterinary bacteria in vitro (Diagnostic Sensitivity Test Agar); details: Salmonella enterica, S7, 18 h
Method: as §2

[12] = tested on: M. bovis NCTC 10131; assay: microbe, parasite or virus in culture; type: cell-based; details: NCTC10131, 144 h
[13] = tested on: Past. multocida PA2; assay: MIC against veterinary bacteria in vitro (Diagnostic Sensitivity Test Agar); details: Pasteurella multocida, PA2, 18 h
Method: as §2

[14] = tested on: Staph. aureus 152 (pen. sens); assay: as above; details: Staphylococcus aureus, 18 h
Method: as §2

[15] = tested on: Erysipelothrix rhusiopathiae NCTC 8163; assay: as above; details: NCTC8163, 18 h
Method: as §2

[16] = tested on: Neisseria catarrhalis 1502; assay: MIC against human bacteria in vitro (nutrient agar, chocolated horse blood); type: cell-based; details: human; Neisseria catarrhalis 1502; 18 hours at 37° C; read-out: MIC
Summary of the method: (§1)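 Agar dilution series; medium supplemented with 5% chocolated horse blood; MIC taken from the dilution series.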

[17] = tested on: M. hyopneumoniae NB12; assay: MIC against Mycoplasma in vitro (Friis broth with agarose); type: cell-based; details: Mesomycoplasma hyopneumoniae
[18] = tested on: Corynebacterium pyogenes CY1; assay: MIC against veterinary bacteria in vitro (Diagnostic Sensitivity Test Agar); details: CY1, 18 h
Method: as §2

[19] = tested on: M. hyorhinis ATCC 23234; assay: MIC against Mycoplasma in vitro (Friis broth with agarose); type: cell-based; details: Mesomycoplasma hyorhinis, ATCC23234, 144 h; M. hyorhinis ATCC 23234; 6 days at 37° C; read-out: MIC
[20] = tested on: Strep. agalactiae SPA1; assay: MIC against veterinary bacteria in vitro (Diagnostic Sensitivity Test Agar); details: Streptococcus agalactiae, SPA1, 18 h
Method: as §2

[21] = tested on: Strep. dysgalactiae SPD1; assay: as above; details: Streptococcus dysgalactiae, SPD1, 18 h
Method: as §2

[22] = tested on: Bord. bronchiseptica B08; assay: as above; details: Bordetella bronchiseptica, B08, 18 h
Method: as §2

[23] = tested on: M. hyopneumoniae HK (2); assay: MIC against Mycoplasma in vitro (Friis broth with agarose); type: cell-based; details: Mesomycoplasma hyopneumoniae, 144 h; M. hyopneumoniae HK (2); 6 days at 37° C; read-out: MIC
[24] = tested on: Strep. pneumoniae CN33; assay: MIC against human bacteria in vitro (nutrient agar, chocolated horse blood); type: cell-based; details: Streptococcus pneumoniae; human; Strep. pneumoniae CN33; 18 hours at 37° C; read-out: MIC
Summary of the method: as §1

[25] = tested on: Haemophilus influenzae Q1; assay: as above; type: cell-based; details: human; Haemophilus influenzae Q1; 18 hours at 37° C; read-out: MIC
Summary of the method: as §1

[26] = tested on: M. hyopneumoniae LABER; assay: MIC against Mycoplasma in vitro (Friis broth with agarose); type: cell-based; details: Mesomycoplasma hyopneumoniae, 144 h; M. hyopneumoniae LABER; 6 days at 37° C; read-out: MIC
[27] = M. hyopneumoniae UCD 1, 6 days at 37° C, read-out: MIC
[28] = 144 h, M. hyopneumoniae NB12, 6 days at 37° C, read-out: MIC

Compound | MIC [1] | MIC [2] | MIC [4] | MIC [5] | MIC [6] | MIC [7] | MIC [8] | MIC [9] | MIC [11] | MIC [12] | MIC [13] | MIC [14] | MIC [15] | MIC [16] | MIC [18] | MIC [19] | MIC [20] | MIC [21] | MIC [22] | MIC [23] | further results
CC(=Cc1nnc(-c2cccc(C#N)c2)o1)CC1OCC(CC2OC2C(C)C(C)O)C(O)C1O (stereo not drawn) [Example 11, 2-(m-Cyanophenyl)-5-(1-normon-2-yl)-1,3,4-oxadiazole A] | > 80 µg/mL | 0.25 µg/mL (≈ 0.532 µM) | > 10 µg/mL | > 80 µg/mL | 2.5 µg/mL (≈ 5.32 µM) | > 10 µg/mL | 0.5 µg/mL (≈ 1.06 µM) | 0.1 µg/mL (≈ 0.213 µM) | > 80 µg/mL | 0.05 µg/mL (≈ 0.106 µM) | 0.312 µg/mL (≈ 0.664 µM) | 20 µg/mL (≈ 42.6 µM) | 40 µg/mL (≈ 85.2 µM) | 0.25 µg/mL (≈ 0.532 µM) | > 80 µg/mL | 0.1 µg/mL (≈ 0.213 µM) | 5 µg/mL (≈ 10.6 µM) | 2.5 µg/mL (≈ 5.32 µM) | > 80 µg/mL | – | MIC [3]: 2.5 µg/mL (≈ 5.32 µM); MIC [10]: 0.25 µg/mL (≈ 0.532 µM); MIC ([17]; NB12, 144 h): 0.25 µg/mL (≈ 0.532 µM)
CC(=Cc1nnnn1Cc1ccc([N+](=O)[O-])cc1)CC1OCC(CC2OC2C(C)C(C)O)C(O)C1O (stereo not drawn) [Example 12, 1-(p-Nitrobenzyl)-5-(1-normon-2-yl)tetrazole A] | > 80 µg/mL | 5 µg/mL (≈ 9.93 µM) | > 10 µg/mL | > 80 µg/mL | > 80 µg/mL | > 10 µg/mL | 2.5 µg/mL (≈ 4.96 µM) | 2.5 µg/mL (≈ 4.96 µM) | > 80 µg/mL | 0.1 µg/mL (≈ 0.199 µM) | > 80 µg/mL | > 80 µg/mL | > 80 µg/mL | 10 µg/mL (≈ 19.9 µM) | > 80 µg/mL | 5 µg/mL (≈ 9.93 µM) | > 80 µg/mL | > 80 µg/mL | > 80 µg/mL | 5 µg/mL (≈ 9.93 µM) | MIC [10, 27]: 5 µg/mL (≈ 9.93 µM); MIC [24]: 100 µg/mL (≈ 199 µM); MIC [25]: 1 µg/mL (≈ 1.99 µM); MIC [17, 28]: 5 µg/mL (≈ 9.93 µM)
COC(=O)CCCCCCCCn1nnnc1C=C(C)CC1OCC(CC2OC2C(C)C(C)O)C(O)C1O (stereo not drawn) [Example 13, 1-(8-Methoxycarbonyloctyl)-5-(1-normon-2-yl)-1H-tetrazole A] | > 80 µg/mL | > 10 µg/mL | > 10 µg/mL | > 80 µg/mL | 40 µg/mL (≈ 74.3 µM) | > 10 µg/mL | > 10 µg/mL | > 10 µg/mL | > 80 µg/mL | 1 µg/mL (≈ 1.86 µM) | 5 µg/mL (≈ 9.28 µM) | 20 µg/mL (≈ 37.1 µM) | > 80 µg/mL | 64 µg/mL (≈ 119 µM) | > 80 µg/mL | > 10 µg/mL | > 80 µg/mL | > 80 µg/mL | > 80 µg/mL | > 10 µg/mL | MIC [10, 27]: > 10 µg/mL; MIC [24]: > 64 µg/mL; MIC [17, 28]: > 10 µg/mL; MIC [26]: > 10 µg/mL
CC(=Cc1nnnn1CCCCCCCCC(=O)O)CC1OCC(CC2OC2C(C)C(C)O)C(O)C1O (stereo not drawn) [Example 14, Sodium 1-(8-carboxylatooctyl)-5-(1-normon-2-yl)-1H-tetrazole A] | > 80 µg/mL | > 10 µg/mL | > 10 µg/mL | > 80 µg/mL | 80 µg/mL | > 10 µg/mL | > 10 µg/mL | – | > 80 µg/mL | 5 µg/mL | 1.25 µg/mL | > 80 µg/mL | > 80 µg/mL | > 128 µg/mL | > 80 µg/mL | > 10 µg/mL | > 80 µg/mL | > 80 µg/mL | > 80 µg/mL | > 10 µg/mL | MIC [10, 27]: > 10 µg/mL; MIC [24]: > 128 µg/mL; MIC [17, 28]: > 10 µg/mL; MIC [26]: > 10 µg/mL

— US4861788A, “Antibacterial 1-normon-2-yl-heterocyclic compounds” (Beecham Group plc, priority 1983, dated 1989)
